Data from US8513232B2, “Substituted spirocyclic piperidine derivatives as histamine-3 (H3) receptor ligands” (Cephalon, Inc., priority 2008, dated 2013).
Counter-ions that a name gives are not always drawn. Like-named read-outs stand apart in the source and are kept apart here.

Tests used:
[1] = biological target: T1, rat histamine H3 receptor (Rattus norvegicus, UniProt Q9QYN8); experiment: Rat H3 radioligand binding ([3H]-N-alpha-methylhistamine, SPA)
T1 construct: encoding the entire 445-amino-acid rat histamine H3 receptor; expressed in transfected cells; membrane preparation
Text: Cell line development and membrane preparation. The rat H3 receptor cDNA was PCR amplified from reverse-transcribed RNA pooled from rat thalamus, hypothalamus, striatum and prefrontal cortex with a sequence corresponding to by #338-1672 of Genbank file #NM_053506, encoding the entire 445-amino-acid rat histamine H3 receptor. This was engineered into the pIRES-neo3 mammalian expression vector, which was stably transfected into the CHO-A3 cell line (Euroscreen, Belgium), followed by clonal selection by limiting dilution. Cells were harvested and cell pellets were frozen (−80° C.). Cell pellets were resuspended in 5 mM Tris-HCl, pH 7.5 with […] and a cocktail of protease inhibitors (Complete Protease Inhibitior Tablets, Roche Diagnostics). Cells were disrupted using a polytron cell homogenizer and the suspension was centrifuged at 1000×g for 10 minutes at 4° C. The pellet was discarded and the supernatant centrifuged at 40,000×g for 30 min at 4° C. This membrane pellet was washed in membrane buffer containing 50 mM Tris-HCl, pH 7.5 with 0.6 mM EDTA, 5 mM MgCl2 and protease inhibitors, recentrifuged as above and the final pellet resuspended in membrane buffer plus 250 mM sucrose and frozen at −80° C.
(§1) Radioligand Binding. Membranes were resuspended in 50 mM Tris HCl (pH 7.4), 5 mM MgCl2, 0.1% BSA. The membrane suspensions (10 μg protein per well) were incubated in a 96 well microtiter plate with [^3H]-N-alpha-methylhistamine (approximately 1 nM final concentration), test compounds at various concentrations (0.01 nM-30 μM) and scintillation proximity beads (Perkin Elmer, FlashBlueGPCR Scintillating Beads) in a final volume of 80 μl for 4 hours at room temperature, protected from light. Non-specific binding was determined in the presence of 10 μM clobenpropit. Radioligand bound to receptor, and therefore in proximity to the scintillation beads, was measured using a MicroBeta scintillation counter.

[2] = biological target: T2, human H3 receptor (Homo sapiens, UniProt Q9Y5N1); experiment: Human H3 radioligand binding ([3H]-N-alpha-methylhistamine, SPA)
T2 construct: expressed in transfected cells
Experimental: Methods: CHO cells stably expressing the human H3 receptor (GenBank: NM_007232) were harvested and cell pellets were frozen (−80° C.). Cell pellets were resuspended in 5 mM Tris-HCl, pH 7.5 with […] and a cocktail of protease inhibitors (Complete Protease Inhibitior Tablets, Roche Diagnostics). Cells were disrupted using a polytron cell homogenizer and the suspension was centrifuged at 1000×g for 10 minutes at 4° C. The pellet was discarded and the supernatant centrifuged at 40,000×g for 30 min at 4° C. This membrane pellet was washed in membrane buffer containing 50 mM Tris-HCl, pH 7.5 with 0.6 mM EDTA, 5 mM MgCl2 and protease inhibitors, recentrifuged as above and the final pellet resuspended in membrane buffer plus 250 mM sucrose and frozen at −80° C.
as §1

[3] = Rat H3 binding, Table B, Examples 136-362, read-out: rat H3 binding Ki
[4] = Human H3 binding, Table B, Examples 136-362, read-out: hum H3 binding Ki
[5] = rat H3 binding, Table D, read-out: Rat H3 Ki
[6] = human H3 binding, Table D, read-out: Human H3 Ki

T2 sequence (Q9Y5N1 whole entry): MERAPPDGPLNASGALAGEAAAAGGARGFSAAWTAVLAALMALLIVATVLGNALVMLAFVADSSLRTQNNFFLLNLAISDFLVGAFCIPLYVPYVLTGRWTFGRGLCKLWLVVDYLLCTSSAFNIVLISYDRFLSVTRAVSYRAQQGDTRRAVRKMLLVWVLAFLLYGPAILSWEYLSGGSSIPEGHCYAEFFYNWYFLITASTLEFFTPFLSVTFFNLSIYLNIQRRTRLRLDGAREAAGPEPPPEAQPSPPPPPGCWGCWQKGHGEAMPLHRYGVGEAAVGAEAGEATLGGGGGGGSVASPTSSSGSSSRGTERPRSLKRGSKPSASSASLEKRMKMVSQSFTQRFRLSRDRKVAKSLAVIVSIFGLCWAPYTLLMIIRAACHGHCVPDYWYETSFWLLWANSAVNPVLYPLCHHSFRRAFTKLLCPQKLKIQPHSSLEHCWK
T1 sequence (Q9QYN8 whole entry): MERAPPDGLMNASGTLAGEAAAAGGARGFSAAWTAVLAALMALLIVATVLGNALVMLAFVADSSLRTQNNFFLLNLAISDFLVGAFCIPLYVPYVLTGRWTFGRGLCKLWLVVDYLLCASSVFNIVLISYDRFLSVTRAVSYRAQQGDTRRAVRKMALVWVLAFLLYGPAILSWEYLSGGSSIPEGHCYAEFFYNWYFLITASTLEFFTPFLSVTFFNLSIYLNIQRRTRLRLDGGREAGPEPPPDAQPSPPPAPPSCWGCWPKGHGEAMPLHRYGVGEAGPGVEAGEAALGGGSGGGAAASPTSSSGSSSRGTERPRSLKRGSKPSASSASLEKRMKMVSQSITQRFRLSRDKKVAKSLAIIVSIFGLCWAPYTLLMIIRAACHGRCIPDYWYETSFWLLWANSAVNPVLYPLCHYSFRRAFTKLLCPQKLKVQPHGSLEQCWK

Row | Compound | melting point [°C] | Ki [1, 5] [µM] | Ki [2, 6] [µM] | further results
1 | O=C(Nc1ccc2c(c1)COC1(CCN(C3CCC3)CC1)O2)c1ccnnc1 [Example 203] | 206 to 207 |  |  | Ki [1, 3]: < 0.2 µM; Ki [2, 4]: < 0.2 µM
2 | O=C(Nc1ccc2c(c1)COC1(CCN(C3CCC3)CC1)O2)c1ccnc(F)c1 [Example 291] | 187 to 188 |  |  | Ki [1, 3]: < 0.2 µM; Ki [2, 4]: < 0.2 µM
3 | OC1CCC(c2ccc3c(c2)COC2(CCN(C4CCC4)CC2)O3)CC1 (centres unmarked) [Example 531] | 113 to 115 |  |  | Ki ([1]; read-out: Rat H3 kI): < 0.2 µM; Ki ([2]; read-out: Human H3 Ki): < 0.2 µM
4 | O=C(Nc1ccc(Cl)cc1)Nc1ccc2c(c1)COC1(CCN(C3CCC3)CC1)O2 [Example 184] | 201 to 203 |  |  | Ki [1, 3]: 0.2 to 1 µM; Ki [2, 4]: < 0.2 µM
5 | O=C1CCC(=O)N1CCCOc1ccc2c(c1)CCC1(CCN(C3CCC3)CC1)O2 [Example 460] | 235 to 237 |  |  | Ki ([1]; read-out: Rat H3 kI): < 0.2 µM; Ki ([2]; read-out: Human H3 Ki): < 0.2 µM
6 | O=c1[nH]cc(-c2ccc3c(c2)COC2(CCN(C4CCC4)CC2)O3)cc1CO [Example 773] | 228 to 230 | < 0.2 | < 0.2 | 
7 | OC1(c2ccc3c(c2)COC2(CCN(C4CCC4)CC2)O3)CCC(F)(F)CC1 [Example 554] | 186 to 187 |  |  | Ki ([1]; read-out: Rat H3 kI): < 0.2 µM; Ki ([2]; read-out: Human H3 Ki): < 0.2 µM
8 | COCCNC(=O)CCc1ccc2c(c1)COC1(CCN(C3CCC3)CC1)O2 [Example 644] | 68 to 70 | 0.2 to 1 | < 0.2 | 
9 | OC(c1ccc2c(c1)COC1(CCN(C3CCC3)CC1)O2)c1cncs1 (centres unmarked) [Example 669] | 72 to 75 | < 0.2 | < 0.2 | 
10 | CN(C)C(=O)/C=C/c1ccc2c(c1)CCC1(CCN(C3CCC3)CC1)O2 [Example 594] | 187 to 189 | 0.2 to 1 | < 0.2 | 
11 | COc1ncc(-c2ccc3c(c2)COC2(CCN(C4CCC4)CC2)O3)cc1CO [Example 768] | 150 to 151 | < 0.2 | < 0.2 | 
12 | COc1ncc(-c2ccc3c(c2)COC2(CCN(C4CCC4)CC2)O3)cc1Cl [Example 629] | 174 to 175 | < 0.2 | < 0.2 | 
13 | CNC(=O)c1c(F)cc(-c2ccc3c(c2)COC2(CCN(C4CCC4)CC2)O3)cc1F [Example 220] | 212.6 to 214.2 |  |  | Ki [1, 3]: < 0.2 µM; Ki [2, 4]: < 0.2 µM
14 | O=C(NCCO)c1c(F)cc(-c2ccc3c(c2)CCC2(CCN(C4CCC4)CC2)O3)cc1F [Example 260] | 76.3 to 78.2 |  |  | Ki [1, 3]: < 0.2 µM; Ki [2, 4]: < 0.2 µM
15 | c1cc2c(cc1OCC1CCSCC1)CCC1(CCN(C3CCC3)CC1)O2 [Example 499] | 117 to 118 |  |  | Ki ([1]; read-out: Rat H3 kI): < 0.2 µM; Ki ([2]; read-out: Human H3 Ki): < 0.2 µM
16 | c1ccc(N2CCN(c3ccc4c(c3)CCC3(CCN(C5CCC5)CC3)O4)CC2)cc1 [Example 363] | 173 to 175 |  |  | Ki ([1]; Table C, rat H3 binding, read-out: Rat H3 Ki): < 0.2 µM; Ki ([2]; Table C, human H3 binding, read-out: Human H3 Ki): < 0.2 µM
17 | CNC(=O)c1c(F)cc(-c2ccc3c(c2)CCC2(CCN(C4CCC4)CC2)O3)cc1F [Example 226] | 110 to 112 |  |  | Ki [1, 3]: < 0.2 µM; Ki [2, 4]: < 0.2 µM
18 | CC(C)C(=O)NC1CCN(c2ccc3c(c2)CCC2(CCN(C4CCC4)CC2)O3)CC1 [Example 571] | 199.3 to 201.2 | < 0.2 | < 0.2 | 
19 | c1cn2cc(-c3ccc4c(c3)COC3(CCN(C5CCC5)CC3)O4)ccc2n1 [Example 19] | 64.5 to 66 |  |  | Ki ([1]; Table A, rat H3 binding, read-out: Rat Ki): < 0.2 µM; Ki ([2]; Table A, human H3 binding, read-out: Human Ki): < 0.2 µM
20 | O=C(O)CCc1ccc2c(c1)COC1(CCN(C3CCC3)CC1)O2 [Example 637] | 235 to 237 |  | 0.2 to 1 | 
21 | O=c1ccc(-c2ccc3c(c2)COC2(CCN(C4CC(CO)C4)CC2)O3)c[nH]1 (centres unmarked) [Example 721] | 228 to 230 |  | > 1 | 
22 | c1cc2c(cc1OC1CCNCC1)CCC1(CCN(C3CCC3)CC1)O2 (as salt: HCl) [Example 425] | > 320 |  |  | 
